Assay results taken from patent publication US20070142395A1, “Treatment of sexual dysfunction with 1-[3-[4-(3-chlorophenyl)-1-piperazinyl]propyl]-5-methoxy-3,4-dihydro-2(1H)-quinolone or salt thereof” (Vela Pharmaceuticals, Inc., priority 2005, published 2007).

Test system: patients with MDD
Assay: CSFQ shift analysis (sexual dysfunction / no sexual dysfunction by threshold), same clinical study
Format: in vivo, Humans
Conditions: shift baseline to Day 56, LOCF, 5 mg BID
Protocol: A double-blind, randomized, placebo-controlled, parallel-group study was performed to evaluate the efficacy, safety and tolerability of OPC-14523 in patients with MDD. The patients selected for participation in the trial had to meet DSM-IV-TR criteria for MDD (296.2x or 296.3x; diagnosis via MINI) and had had symptoms of depression for at least 2 months before the start of the double-blind treatment. Among other drugs prohibited during the study, patients were prohibited from taking drugs used to enhance sexual function, including, but not limited to, sildenafil, tadalafil and vardenafil, or taking psychopharmacologic drugs.
Each patient was expected to participate for up to 10 weeks. The 10 weeks included: i) a 4- to 10-day screening period, during which potential participants were administered placebo in a single-blind manner; ii) an 8-week double-blind treatment period; and iii) a 4- to 10- day post-treatment visit period. Baseline evaluations, including assessment of sexual function, were conducted on Day −1. The next day, Day 1, the double-blind medication was begun. All treatment was on an outpatient basis.
The dosages studied were 5 mg BID OPC-14523 (10 mg total daily dose of immediate release tablet of Example 1) and placebo. The drugs were taken after meals in the morning and in the evening, about 12 hours apart.
Data on sexual function were collected using the Changes in Sexual Function Questionnaire (CSFQ). The CSFQ is a 14-item self-report measure of sexual functioning vis-â-vis experiences of pleasure, desire, arousal, and orgasm, with a 5-point response option for each item. The 14-item validated CSFQ was developed from a questionnaire comprising 35 and 36 items for female and male respondents, respectively (Clayton et al., Psychopharmacol Bull. 33(4):731-45 (1997) and Clayton et al., Psychopharmacol Bull. 33(4):747-53 (1997), each incorporated herein by reference in its entirety). The CSFQ has also been independently validated (Bobes et al., J Sex Marital Ther. 26(2): 119-31(2000)). The 14-item CSFQ includes items 8, 11, 14, 19-24 from the interview version of the CSFQ (“CSFQ-I”); Clayton et al., Psychopharmacol Bull. 33(4):731-45 (1997)). The CSFQ differs for men and women, reflecting some variation in wording of items. Males were given the male clinical version, CSFQ-M-C, and women were given the female clinical version, CSFQ-F-C. CSFQ-F-C includes items 25, 27, 28, 30 and 31 from the questions for women on the CSFG-I. CSFQ-M-C includes items 28-32 from the questions for men on the CSFQ-I, as well as item 25 from the questions for women.
The 14-item CSFQ has subscales for sexual pleasure (1 item), desire/frequency (2 items), desire/interest (3 items), arousal (3 items), and orgasm (3 items). In addition, a 14-item total score may be calculated. Higher scores are indicative of more favorable sexual functioning. Threshold scores for total and sub-scales have been defined. A score below the threshold score indicates dysfunction.
The construction of shift tables is a routine analysis that is often carried out in the analysis of clinical trial data. For the data herein, the analysis was constructed by categorizing the subjects' scores at baseline and then separately at Day 56 according to having sexual dysfunction (SD) or no sexual dysfunction (NSD). These categories were defined by the threshold values specified in the CSFQ (see Table 4). The cross-classification of the baseline categories with the Day 56 categories results in a 2×2 table with the cells NSD/NSD, NSD/SD, SD/NSD, and SD/SD. Two categories represent the number and percent of subjects who stayed in the same category from baseline to Day 56 (NSD/NSD and SD/SD cells). The other two categories represent the number and percentage of subjects who shifted either for better (SD/NSD cell) or worse (NSD/SD cell). In the tables below, “remained low” refers to the SD/SD category. […]

## COc1cccc2c1CCC(=O)N2CCCN1CCN(c2cccc(Cl)c2)CC1 [OPC-14523, 1-[3-[4-(3-chlorophenyl)-1-piperazinyl]propyl]-5-methoxy-3,4-dihydro-2(1H)-quinolone]
All patients (men and women)
  CSFQ Arousal/Excitement: Improved (Low→Normal), %: 6%
  CSFQ Arousal/Excitement: Remained Low, %: 84%
  CSFQ Arousal/Excitement: Remained Normal, %: 7%
  CSFQ Arousal/Excitement: Worsened (Normal→Low), %: 3 (3%)
  CSFQ Desire/Frequency: Improved (Low→Normal), %: 13%
  CSFQ Desire/Frequency: Remained Low, %: 75%
  CSFQ Desire/Frequency: Remained Normal, %: 9%
  CSFQ Desire/Frequency: Worsened (Normal→Low), %: 3%
  CSFQ Desire/Interest: Improved (Low→Normal), %: 7%
  CSFQ Desire/Interest: Remained Low, %: 78%
  CSFQ Desire/Interest: Remained Normal, %: 12%
  CSFQ Desire/Interest: Worsened (Normal→Low), %: 3 (3%)
  CSFQ Orgasm/Completion: Improved (Low→Normal), %: 12%
  CSFQ Orgasm/Completion: Remained Low, %: 64%
  CSFQ Orgasm/Completion: Remained Normal, %: 17%
  CSFQ Orgasm/Completion: Worsened (Normal→Low), %: 7%
  CSFQ Pleasure: Improved (Low→Normal), %: 5%
  CSFQ Pleasure: Remained Low, %: 91%
  CSFQ Pleasure: Remained Normal, %: 3%
  CSFQ Pleasure: Worsened (Normal→Low), %: 0 (0%)
  CSFQ Total Score: Improved (Low→Normal), %: 16%
  CSFQ Total Score: Remained Low, %: 42%
  CSFQ Total Score: Remained Normal, %: 39%
  CSFQ Total Score: Worsened (Normal→Low), %: 3 (3%)
Men only
  CSFQ Arousal/Excitement: Improved (Low→Normal), %: 2%
  CSFQ Arousal/Excitement: Remained Low, %: 79%
  CSFQ Arousal/Excitement: Remained Normal, %: 15%
  CSFQ Arousal/Excitement: Worsened (Normal→Low), %: 4%
  CSFQ Desire/Frequency: Improved (Low→Normal), %: 13%
  CSFQ Desire/Frequency: Remained Low, %: 77%
  CSFQ Desire/Frequency: Remained Normal, %: 9%
  CSFQ Desire/Frequency: Worsened (Normal→Low), %: 2%
  CSFQ Desire/Interest: Improved (Low→Normal), %: 2%
  CSFQ Desire/Interest: Remained Low, %: 81%
  CSFQ Desire/Interest: Remained Normal, %: 17%
  CSFQ Desire/Interest: Worsened (Normal→Low), %: 0 (0%)
  CSFQ Orgasm/Completion: Improved (Low→Normal), %: 9%
  CSFQ Orgasm/Completion: Remained Low, %: 68%
  CSFQ Orgasm/Completion: Remained Normal, %: 15%
  CSFQ Orgasm/Completion: Worsened (Normal→Low), %: 9%
  CSFQ Pleasure: Improved (Low→Normal), %: 2%
  CSFQ Pleasure: Remained Low, %: 91%
  CSFQ Pleasure: Remained Normal, %: 6%
  CSFQ Pleasure: Worsened (Normal→Low), %: 0 (0%)
  CSFQ Total Score: Improved (Low→Normal), %: 15%
  CSFQ Total Score: Remained Low, %: 40%
  CSFQ Total Score: Remained Normal, %: 43%
  CSFQ Total Score: Worsened (Normal→Low), %: 2%
Women only
  CSFQ Arousal/Excitement: Improved (Low→Normal), %: 9%
  CSFQ Arousal/Excitement: Remained Low, %: 88%
  CSFQ Arousal/Excitement: Remained Normal, %: 1 (1%)
  CSFQ Arousal/Excitement: Worsened (Normal→Low), %: 1 (1%)
  CSFQ Desire/Frequency: Improved (Low→Normal), %: 13%
  CSFQ Desire/Frequency: Remained Low, %: 74%
  CSFQ Desire/Frequency: Remained Normal, %: 9%
  CSFQ Desire/Frequency: Worsened (Normal→Low), %: 4%
  CSFQ Desire/Interest: Improved (Low→Normal), %: 10%
  CSFQ Desire/Interest: Remained Low, %: 76%
  CSFQ Desire/Interest: Remained Normal, %: 9%
  CSFQ Desire/Interest: Worsened (Normal→Low), %: 4%
  CSFQ Orgasm/Completion: Improved (Low→Normal), %: 15%
  CSFQ Orgasm/Completion: Remained Low, %: 61%
  CSFQ Orgasm/Completion: Remained Normal, %: 18%
  CSFQ Orgasm/Completion: Worsened (Normal→Low), %: 6%
  CSFQ Pleasure: Improved (Low→Normal), %: 7%
  CSFQ Pleasure: Remained Low, %: 91%
  CSFQ Pleasure: Remained Normal, %: 1 (1%)
  CSFQ Pleasure: Worsened (Normal→Low), %: 0 (0%)
  CSFQ Total Score: Improved (Low→Normal), %: 16%
  CSFQ Total Score: Remained Low, %: 43%
  CSFQ Total Score: Remained Normal, %: 37%
  CSFQ Total Score: Worsened (Normal→Low), %: 3%
